The EC50 is the concentration needed to bring the measured effect to its halfway point. The term IC50 denotes the point on the concentration scale where inhibition reaches its midpoint.

Five compounds from US12448400B2, “KRAS G12D modulating compounds” (priority 2023, dated 2025) can be followed below.

For data set [1], the system named is GP2D (KRAS G12D) cells. Put plainly: 2D cell viability assay (CellTiter-Glo). The data set is classed as cell-based. As to conditions: 96 h; GP2D cells, 4 days, CellTiter-Glo luminescence; read-out: G12D 2D EC50. Summed up:
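Viability was read by CellTiter-Glo after 4 days at 37 °C of 2D culture of KRAS G12D GP2D cells (1000/well, RPMI, 10% FBS) on pre-spotted threefold compound dilutions. EC50 was fitted with a sigmoidal dose-response model as the point of half-maximal luminescence loss.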
(Cellular ATP, detected with luciferase, serves as a proxy for viable cell number.)

Data set [2] deals with GDP-loaded KRAS G12D (Homo sapiens, UniProt P01116, G12D). The data set is described as follows: KRAS G12D (GDP) biochemical assay, TR-FRET probe displacement. The data set is classed as binding. Particulars: 0.5 nM enzyme, 30 min pre-incubation, 2 h incubation, TR-FRET ratio; read-out: G12D IC50. In short, it runs like this: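 TR-FRET probe displacement: 1:3 DMSO serial dilutions pre-incubated 30 min with GDP-bound KRAS G12D, followed by Eu-streptavidin/probe for 2 h at room temperature (Hepes pH 7.4, NaCl, MgCl2, Tween-20 buffer). IC50 defined as concentration halving TR-FRET ratio, from sigmoidal dose-response fit.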
Sequence of GDP-loaded KRAS G12D (P01116 1-188 isoform P01116-2 G12D): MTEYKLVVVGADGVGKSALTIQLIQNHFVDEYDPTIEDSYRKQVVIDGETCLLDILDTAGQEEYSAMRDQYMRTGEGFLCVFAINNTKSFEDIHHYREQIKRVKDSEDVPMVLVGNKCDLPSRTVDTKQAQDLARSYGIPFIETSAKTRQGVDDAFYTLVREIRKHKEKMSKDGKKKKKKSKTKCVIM
In general terms: In TR-FRET formats the signal depends on donor and acceptor labels being close together.

Data set [3] in a line: Mouse oral cassette pharmacokinetics. The data set is classed as in vivo, male CD-1 mice. As to conditions: male, CD-1, mouse, in vivo, po, 30 mg/kg. The method, then: Mouse Oral Cassette Pharmacokinetics
Test compounds (1-3 compounds per cassette) were formulated in solution formulations (10 w/v % Captisol in 50 mM Citrate buffer) and administered orally at 30 mg-eq./kg each compound to a group of four male CD-1 mice. The test articles were administrated by oral gavage at a dose volume of 10 mL-eq/kg.
Blood samples were collected at 0.5, 1, 3, 6, 8, and 24 hours post dose into K2EDTA tubes and stored on wet ice until processed. Whole blood was processed to plasma by centrifugation (3500 rpm for 10 minutes at 5° C.) within 30 minutes of collection. Plasma samples were placed in Micronic 96 well tubes and stored at −80° C. until transferred. Plasma concentration of the test compounds was determined by LC-MS/MS. Pharmacokinetic parameters were estimated using non-compartment model analysis. The maximum observed concentration (Cmax) and area under the curve from time of dosing to last measured concentration (AUClast) were calculated and reported.

With `C#Cc1c(F)ccc2cc(O)cc(-c3nc4c5c(nc(OC[C@@]67CCCN6C[C@H](F)C7)nc5c3F)N3C[C@H]5CC[C@@H]([C@H]3CC[C@H]4C)N5Cc3oc(=O)oc3CCCCCCCC)c12` [Example 13, 4-(((4R,6aR,7S,10R)-2-(8-ethynyl-7-fluoro-3-hydroxynaphthalen-1-yl)-1-fluoro-13-(((2R,7aS)-2-fluorotetrahydro-1H-pyrrolizin-7a(5H)-yl)methoxy)-4-methyl-5,6,6a,7,8,9,10,11-octahydro-4H-3,11a,12,14,15-pentaaza-7,10-methanocyclohepta[4,5]cycloocta[1,2,3-de]naphthalen-15-yl)methyl)-5-octyl-1,3-dioxol-2-one], in data set [1], the EC50 turned out to be 0.19 nM. The IC50 in data set [2] was 24 nM. Moreover, the “Mouse Parent AUC” value in data set [3] was 0.42 µM·h.

Take `C#Cc1c(F)ccc2cc(O)cc(-c3nc4c5c(nc(OC[C@@]67CCCN6C[C@H](F)C7)nc5c3F)N3C[C@H]5CC[C@@H]([C@H]3CCC4)N5Cc3oc(=O)oc3CCCCCC)c12` [Example 14, 4-(((6aR,7S,10R)-2-(8-ethynyl-7-fluoro-3-hydroxynaphthalen-1-yl)-1-fluoro-13-(((2R,7aS)-2-fluorotetrahydro-1H-pyrrolizin-7a(5H)-yl)methoxy)-5,6,6a,7,8,9,10,11-octahydro-4H-3,11a,12,14,15-pentaaza-7,10-methanocyclohepta[4,5]cycloocta[1,2,3-de]naphthalen-15-yl)methyl)-5-hexyl-1,3-dioxol-2-one]: the concentration giving a half-maximal response (EC50) in data set [1] is 0.14 nM. The 50% inhibitory concentration (IC50) in data set [2] worked out at 7.3 nM. In data set [3], the “Mouse Parent AUC” value is 0.94 µM·h.

On to `C#Cc1c(F)ccc2cc(O)cc(-c3nc4c5c(nc(OC[C@@]67CCCN6C[C@H](F)C7)nc5c3F)N3C[C@H]5CC[C@@H]([C@H]3CCC4)N5Cc3oc(=O)oc3C3CCCCC3)c12` [Example 15, 4-cyclohexyl-5-(((6aR,7S,10R)-2-(8-ethynyl-7-fluoro-3-hydroxynaphthalen-1-yl)-1-fluoro-13-(((2R,7aS)-2-fluorotetrahydro-1H-pyrrolizin-7a(5H)-yl)methoxy)-5,6,6a,7,8,9,10,11-octahydro-4H-3,11a,12,14,15-pentaaza-7,10-methanocyclohepta[4,5]cycloocta[1,2,3-de]naphthalen-15-yl)methyl)-1,3-dioxol-2-one], for which the 50% effective concentration (EC50) in data set [1] came out at 0.2 nM. Further, in data set [2], the half-inhibitory concentration (IC50) came out at 7.9 nM. For the same compound, in data set [3], the “Mouse Parent AUC” value came to 0.25 µM·h.

In the case of `C#Cc1c(F)ccc2cc(O)cc(-c3nc4c5c(nc(OC[C@@]67CCCN6C[C@H](F)C7)nc5c3F)N3C[C@H]5CC[C@@H]([C@H]3CC[C@H]4C)N5Cc3oc(=O)oc3CCCCCC)c12` [Example 16, 4-(((4R,6aR,7S,10R)-2-(8-ethynyl-7-fluoro-3-hydroxynaphthalen-1-yl)-1-fluoro-13-(((2R,7aS)-2-fluorotetrahydro-1H-pyrrolizin-7a(5H)-yl)methoxy)-4-methyl-5,6,6a,7,8,9,10,11-octahydro-4H-3,11a,12,14,15-pentaaza-7,10-methanocyclohepta[4,5]cycloocta[1,2,3-de]naphthalen-15-yl)methyl)-5-hexyl-1,3-dioxol-2-one], the EC50 in data set [1] stood at 0.16 nM. Moreover, in data set [2], the IC50 is 40 nM. Further, the “Mouse Parent AUC” value in data set [3] came to 0.95 µM·h.

For `C#Cc1c(F)ccc2cc(O)cc(-c3nc4c5c(nc(OC[C@@]67CCCN6C[C@H](F)C7)nc5c3F)N3C[C@H]5CC[C@@H]([C@H]3CC[C@H]4C)N5Cc3oc(=O)oc3C3CCCCC3)c12` [Example 17, 4-cyclohexyl-5-(((4R,6aR,7S,10R)-2-(8-ethynyl-7-fluoro-3-hydroxynaphthalen-1-yl)-1-fluoro-13-(((2R,7aS)-2-fluorotetrahydro-1H-pyrrolizin-7a(5H)-yl)methoxy)-4-methyl-5,6,6a,7,8,9,10,11-octahydro-4H-3,11a,12,14,15-pentaaza-7,10-methanocyclohepta[4,5]cycloocta[1,2,3-de]naphthalen-15-yl)methyl)-1,3-dioxol-2-one], the half-maximal effective concentration (EC50) in data set [1] was found to be 0.2 nM. Further, the IC50 in data set [2] turned out to be 48 nM. Moreover, the “Mouse Parent AUC” value in data set [3] amounted to 0.161 µM·h.
